Measurements taken from US20100003217A1, “Compounds and Pharmaceutical Compositions for the Treatment of Viral Infections” (priority 2008, published 2010).
Values joined by “and” are separate entries in the source; they are usually repeats but may differ in a detail not shown here. Equal values may be shown once.

Tested on: human primary hepatocytes
Test: Metabolic disposition of [^14C]-Compound 1 and [^14C]-2′-C-methyl guanosine in human primary hepatocytes (incubation medium, cellular extracts, nucleotide levels)
Assay type: in vitro ADME
Conditions: for AUC (area under the concentration-time curve) of Compound 7 levels: 0-24 h
How it was run: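 Rat, monkey or human primary hepatocytes on collagen I plates (1.6 million cells/mL) were incubated at 37° C with 1 or 10 μM C-8 [^14C]-labelled compound or 2′-C-methyl guanosine for 1, 4, 8 and 24 hours. Medium and 70% methanol cell extracts were analysed by LSC and radio-HPLC. Nucleotides were identified by alkaline phosphatase treatment and retention-time matching to standards.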

[1] = human hepatocytes (Hu775), 1 μM [^14C]-Compound 1, 1 h
[2] = human hepatocytes (Hu775), 1 μM [^14C]-Compound 1, 8 h
[3] = human hepatocytes (Hu775), 1 μM [^14C]-Compound 1, 24 h
[4] = human hepatocytes Hu775, 1 μM [^14C]-2′-C-methyl guanosine, 1 h
[5] = human hepatocytes Hu775, 1 μM [^14C]-2′-C-methyl guanosine, 8 h
[6] = human hepatocytes Hu775, 1 μM [^14C]-2′-C-methyl guanosine, 24 h

C[C@@]1(O)[C@H](O)[C@@H](COP(=O)(O)OP(=O)(O)OP(=O)(O)O)O[C@H]1n1cnc2c(=O)[nH]c(N)nc21 [Compound 7, [(2R)-2-methyl-β-D-ribofuranosyl]guanine 5′-triphosphate]
metabolites observed in cellular extracts (% of total radioactivity) (human hepatocytes (Hu759, Hu775), 10 μM [^14C]-2′-C-methyl guanosine, 1 h): 2.40% and 3.93% | metabolites observed in cellular extracts (% of total radioactivity) (human hepatocytes (Hu759, Hu775), 10 μM [^14C]-2′-C-methyl guanosine, 4 h): 11.1% and 19.4% | metabolites observed in cellular extracts (% of total radioactivity) (human hepatocytes (Hu759, Hu775), 10 μM [^14C]-2′-C-methyl guanosine, 8 h): 19.6% and 34.1% | metabolites observed in cellular extracts (% of total radioactivity) (human hepatocytes (Hu759, Hu775), 10 μM [^14C]-2′-C-methyl guanosine, 24 h): 36.1% and 45.8% | metabolites observed in cellular extracts (% of total radioactivity) (human hepatocytes (Hu759, Hu775), 10 μM [^14C]-Compound 1, 1 h): 34.2% and 46.4% | metabolites observed in cellular extracts (% of total radioactivity) (human hepatocytes (Hu759, Hu775), 10 μM [^14C]-Compound 1, 4 h): 63.1% and 69.7% | metabolites observed in cellular extracts (% of total radioactivity) (human hepatocytes (Hu759, Hu775), 10 μM [^14C]-Compound 1, 8 h): 70.5% and 74.1% | metabolites observed in cellular extracts (% of total radioactivity) (human hepatocytes (Hu759, Hu775), 10 μM [^14C]-Compound 1, 24 h): 69.5% and 59.6% | 2′-C-methyl guanosine nucleotide levels in cellular extracts [1]: 8.80 pmol/million cells | metabolites observed in cellular extracts (% of total radioactivity) [1]: 48.5% | 2′-C-methyl guanosine nucleotide levels in cellular extracts [2]: 44.2 pmol/million cells | metabolites observed in cellular extracts (% of total radioactivity) [2]: 75.0% | 2′-C-methyl guanosine nucleotide levels in cellular extracts [3]: 60.4 pmol/million cells | metabolites observed in cellular extracts (% of total radioactivity) [3]: 67.0% | Compound 7 AUC0-24h (human hepatocytes (n=1), 1 μM [^14C]-2′-C-methyl guanosine): 302 pmol*h/million cells | Compound 7 AUC0-24h (human hepatocytes (n=1), 1 μM [^14C]-Compound 1): 1,027 pmol*h/million cells | Compound 7 AUC0-24h (human hepatocytes (n=2), 10 μM [^14C]-Compound 1, mean): 7,398 pmol*h/million cells | 2′-C-methyl guanosine nucleotide levels in cellular extracts (human hepatocytes Hu759, 10 μM [^14C]-2′-C-methyl guanosine, 0 h): 0 pmol/million cells | AUC (area under the concentration-time curve) of Compound 7 levels (human hepatocytes Hu759, 10 μM [^14C]-2′-C-methyl guanosine): 2871 pmol * hr/million cells | 2′-C-methyl guanosine nucleotide levels in cellular extracts (human hepatocytes Hu759, 10 μM [^14C]-2′-C-methyl guanosine, 1 h): 9.70 pmol/million cells | 2′-C-methyl guanosine nucleotide levels in cellular extracts (human hepatocytes Hu759, 10 μM [^14C]-2′-C-methyl guanosine, 4 h): 51.0 pmol/million cells | 2′-C-methyl guanosine nucleotide levels in cellular extracts (human hepatocytes Hu759, 10 μM [^14C]-2′-C-methyl guanosine, 8 h): 96.0 pmol/million cells | 2′-C-methyl guanosine nucleotide levels in cellular extracts (human hepatocytes Hu759, 10 μM [^14C]-2′-C-methyl guanosine, 24 h): 214 pmol/million cells | 2′-C-methyl guanosine nucleotide levels in cellular extracts (human hepatocytes Hu759, 10 μM [^14C]-Compound 1, 0 h): 0 pmol/million cells | AUC (area under the concentration-time curve) of Compound 7 levels (human hepatocytes Hu759, 10 μM [^14C]-Compound 1): 5759 pmol * hr/million cells | 2′-C-methyl guanosine nucleotide levels in cellular extracts (human hepatocytes Hu759, 10 μM [^14C]-Compound 1, 1 h): 24.0 pmol/million cells | 2′-C-methyl guanosine nucleotide levels in cellular extracts (human hepatocytes Hu759, 10 μM [^14C]-Compound 1, 4 h): 166 pmol/million cells | 2′-C-methyl guanosine nucleotide levels in cellular extracts (human hepatocytes Hu759, 10 μM [^14C]-Compound 1, 8 h): 225 pmol/million cells | 2′-C-methyl guanosine nucleotide levels in cellular extracts (human hepatocytes Hu759, 10 μM [^14C]-Compound 1, 24 h): 360 pmol/million cells | AUC (area under the concentration-time curve) of Compound 7 levels (human hepatocytes Hu775, 1 μM [^14C]-2′-C-methyl guanosine): 302 pmol * hr/million cells | 2′-C-methyl guanosine nucleotide levels in cellular extracts [4]: 1.90 pmol/million cells | Major metabolites observed in cellular extracts (% of total radioactivity) [4]: 5.36 % of total radioactivity | 2′-C-methyl guanosine nucleotide levels in cellular extracts [5]: 11.0 pmol/million cells | Major metabolites observed in cellular extracts (% of total radioactivity) [5]: 27.3 % of total radioactivity | 2′-C-methyl guanosine nucleotide levels in cellular extracts [6]: 21.0 pmol/million cells | Major metabolites observed in cellular extracts (% of total radioactivity) [6]: 46.3 % of total radioactivity | AUC (area under the concentration-time curve) of Compound 7 levels (human hepatocytes Hu775, 1 μM [^14C]-Compound 1): 1027 pmol * hr/million cells | 2′-C-methyl guanosine nucleotide levels in cellular extracts (human hepatocytes Hu775, 10 μM [^14C]-2′-C-methyl guanosine, 0 h): 0 pmol/million cells | AUC (area under the concentration-time curve) of Compound 7 levels (human hepatocytes Hu775, 10 μM [^14C]-2′-C-methyl guanosine): 3548 pmol * hr/million cells | 2′-C-methyl guanosine nucleotide levels in cellular extracts (human hepatocytes Hu775, 10 μM [^14C]-2′-C-methyl guanosine, 1 h): 18.5 pmol/million cells | 2′-C-methyl guanosine nucleotide levels in cellular extracts (human hepatocytes Hu775, 10 μM [^14C]-2′-C-methyl guanosine, 4 h): 86 pmol/million cells and 86.0 pmol/million cells | 2′-C-methyl guanosine nucleotide levels in cellular extracts (human hepatocytes Hu775, 10 μM [^14C]-2′-C-methyl guanosine, 8 h): 149 pmol/million cells | 2′-C-methyl guanosine nucleotide levels in cellular extracts (human hepatocytes Hu775, 10 μM [^14C]-2′-C-methyl guanosine, 24 h): 215 pmol/million cells | 2′-C-methyl guanosine nucleotide levels in cellular extracts (human hepatocytes Hu775, 10 μM [^14C]-Compound 1, 0 h): 0 pmol/million cells
